Measured values reported in PMC5512577, “PDE6δ-mediated sorting of INPP5E into the cilium is determined by cargo-carrier affinity” (Nature Communications, 2016).
Where two headings read alike, the source gives them in different places. Peptide text beside a SMILES is read from it. * marks the point of attachment. FITC = O=C1OC2(c3ccc(O)cc3Oc3cc(O)ccc32)c2ccc(NC(=S)*)cc21; Farnesyl = CC(C)=CCC/C(C)=C/CC/C(C)=C/C*

Legend:
[1] = test system: PDE6δ/farnesylated peptide complex; experiment: Fluorescence polarization release of farnesylated peptide from PDE6δ by Arl proteins; assay type: biochemical
From the text: Towards an explanation for the possible sorting mechanism that leaves some PDE6δ-cargo in the cell body but allows others to be enriched in the cilia we turned to the release activities of Arl2 and Arl3. […] While Arl2 is a non-ciliary protein, Arl3 localizes along the length of the cilium. Using fluorescence polarization, we measured the release of INPP5E and Rheb peptides from PDE6δ by the addition of Arl2 or Arl3 bound to the non-hydrolysable GTP analogue GppNHp. […] To compare the cargo release kinetics of Arl2·GppNHp and Arl3·GppNHp, we measured the dissociation rate constants of INPP5E and Rheb peptides from PDE6δ in the presence and absence of Arl3·GppNHp or Arl2·GppNHp, by adding a large excess of unlabelled peptide to silence the back reaction. […]
Figure 2 INPP5E release from PDE6δ by Arl2·GppNHp and Arl3·GppNHp. (a) Fluorescence polarization measurements of 0.5 μM FITC-labelled Rheb peptide followed by addition of 0.5 μM PDE6δ and the addition of 5 μM Arl2·GppNHp or Arl3·GppNHp (arrow). (b) Fluorescence polarization measurements of 0.2 μM TAMRA-labelled INPP5E peptide followed by the addition of 0.2 μM PDE6δ (arrow) and 5 μM Arl2·GppNHp or Arl3·GppNHp (arrow). […]
(§1) All fluorescence polarization measurements were performed at 20 °C in a buffer containing 25 mM Tris-HCl (pH 7.5), 50 mM NaCl and 3 mM DTE. […]
Arl3•GTP. Fluorescence polarization measurements of 0.2 µM TAMRA-labeled […]

PDE6δ [2] = experiment: Stopped-flow fluorescence polarization, dissociation of peptides from PDE6δ with and without Arl2/Arl3·GppNHp; assay type: binding; conditions: 1 μM PDE6δ, 0.2 μM labelled peptide, 100-fold excess unlabelled peptide, 20 °C, ± s.d., n=4
From the text: Towards an explanation for the possible sorting mechanism that leaves some PDE6δ-cargo in the cell body but allows others to be enriched in the cilia we turned to the release activities of Arl2 and Arl3. […] While Arl2 is a non-ciliary protein, Arl3 localizes along the length of the cilium. Using fluorescence polarization, we measured the release of INPP5E and Rheb peptides from PDE6δ by the addition of Arl2 or Arl3 bound to the non-hydrolysable GTP analogue GppNHp. […] To compare the cargo release kinetics of Arl2·GppNHp and Arl3·GppNHp, we measured the dissociation rate constants of INPP5E and Rheb peptides from PDE6δ in the presence and absence of Arl3·GppNHp or Arl2·GppNHp, by adding a large excess of unlabelled peptide to silence the back reaction. […] The presence of Arl3·GppNHp or Arl2·GppNHp has a similar acceleration effect on the dissociation rate of Rheb peptide from PDE6δ (koff=27.2±0.7 and 15.3±0.3 s^−1, respectively, ±indicates s.d., n=4) (Fig. 2c,d).
Figure 2 INPP5E release from PDE6δ by Arl2·GppNHp and Arl3·GppNHp. (a) Fluorescence polarization measurements of 0.5 μM FITC-labelled Rheb peptide followed by addition of 0.5 μM PDE6δ and the addition of 5 μM Arl2·GppNHp or Arl3·GppNHp (arrow). (b) Fluorescence polarization measurements of 0.2 μM TAMRA-labelled INPP5E peptide followed by the addition of 0.2 μM PDE6δ (arrow) and 5 μM Arl2·GppNHp or Arl3·GppNHp (arrow). (c–f) Stopped-flow fluorescence polarization kinetic experiment where complexes of 1 μM PDE6δ with either 0.2 μM of FITC-labelled Rheb peptide (c,d) or TAMRA-labelled farnesylated INPP5E peptide (e,f) were mixed with 100-fold excess of unlabelled peptide and 10 μM of Arl2 (c,e) or Arl3 (d,f) as indicated.
as §1

PDE6δ [3] = experiment: Stopped-flow fluorescence polarization kinetics of mantGppNHp-loaded Arl proteins with PDE6δ; assay type: binding; conditions: for association rate constant kon with PDE6δ: 0.2 μM mantGppNHp-loaded Arl protein, increasing PDE6δ; for association rate constant kon with PDE6δ / dissociation rate constant koff from PDE6δ: 20 °C; for association rate constant kon with PDE6δ / dissociation rate constant koff from PDE6δ / Kd: n=4; for dissociation rate constant koff from PDE6δ: 2 μM PDE6δ with 0.2 μM mantGppNHp-loaded Arl protein, 200-fold excess unlabelled Arl protein; for Kd: calculated from kinetic constants, ± s.d., read-out: equilibrium dissociation constant Kd with PDE6δ (Kd=koff/kon)
Procedure: Previously we have shown that the N-terminal helix of Arl3 is important to release myristoylated cargo from a complex with the shuttle factor UNC119 (ref. [30]). To find out whether the N-terminus of Arl3 and/or Arl2 has a similar if any role in the interaction with PDE6δ, fluorescence polarization measurements using full-length Arl3 (Arl3^fl) or an N-terminal truncated form (Arl3^ΔN) were performed. […] To investigate the role of the N-terminal helix of Arl3 in the release mechanism, we measured association and dissociation rate constants to determine the affinity of PDE6δ towards Arl2 and Arl3 in both full-length and N-terminal truncated forms. Association rate constants between the four proteins Arl3^fl, Arl3^ΔN, Arl2^fl and Arl2^ΔN are rather similar although association is almost twice as fast for full-length Arl3 as compared with Arl2 (Fig. 3a,b). […] The Kd values for Arl2^fl and Arl3^fl differ from previously determined values, likely because of the different techniques used.
Figure 3 Contribution of the N-terminal helix of Arl3 to the binding affinity with PDE6δ. (a) Stopped-flow fluorescence polarization kinetic measurements of the association of 0.2 μM mantGppNHp loaded Arl proteins with increasing concentrations of PDE6δ. The observed pseudo-first order rate constants (kobs) are plotted against PDE6δ concentration. (b) Bar charts of the association rate constants (kon) determined in a. (c,d) Stopped-flow fluorescence polarization kinetic experiments where complexes of 2 μM PDE6δ with 0.2 μM of full-length (Arl^fl) or N-terminally deleted (Arl^ΔN) mantGppNHp loaded Arl proteins as indicated were mixed with 200-fold excess of unlabelled Arl proteins to determine koff. (e) Bar charts of the dissociation rate constants (koff) from experiments in c,d. (f) Bar charts of the equilibrium dissociation constants (Kd) of complexes between PDE6δ and Arl proteins as determined from the kinetic constants in c,e. Error bars indicate s.d., n=4. TEXT PRINTED IN THE PICTURE: (b) Arl3^fl: kon (μM^-1s^-1): 5.97 | (b) Arl3^ΔN: kon (μM^-1s^-1): 4.25 | (b) Arl2^fl: kon (μM^-1s^-1): 2.25 | (b) Arl2^ΔN: kon (μM^-1s^-1): 3.09 | (e) Arl3^fl: koff (s^-1): 0.035 | (e) Arl3^ΔN: koff (s^-1): 0.92 | (e) Arl2^fl: koff (s^-1): 0.33 | (e) Arl2^ΔN: koff (s^-1): 0.98 | (f) Arl3^fl: kd (nM): 5.84 | (f) Arl3^ΔN: kd (nM): 217 | (f) Arl2^fl: kd (nM): 149 | (f) Arl2^ΔN: kd (nM): 319
All fluorescence polarization measurements were performed at 20 °C in a buffer containing 25 mM Tris-HCl (pH 7.5), 50 mM NaCl and 3 mM DTE. For the titration measurement, data were recorded with Fluoromax-4 spectrophotometer (HORIBA Jobin Yvon, Munich, Germany) with excitation and emission wavelengths at 530 and 580 nm for TAMRA-labelled INPP5E peptide and at 495 and 520 nm for fluorescein-labelled Rheb peptide. The kinetic measurements were monitored by a stopped-flow apparatus (Applied Photophysics) in the polarization mode using an excitation wavelength of 366 nm and filter with 420 nm cutoff for mantGppNHp bound Arl protein, excitation wavelength of 495 nm and filter with 520 nm cutoff for fluorescein-labelled Rheb peptide and excitation wavelength of 530 nm and filter with 570 nm cutoff for TAMRA-labelled INPP5E peptide. Data analysis was done with GraFit 5.0 program (Erithracus Software). Concentrations used for each experiment are indicated in the corresponding figure legend.

Molecule | release of peptide from PDE6δ by Arl2·GppNHp or Arl3·GppNHp ([1]; 0.5 μM FITC-Rheb peptide + 0.5 μM PDE6δ or 0.2 μM TAMRA-INPP5E peptide + 0.2 μM PDE6δ, 5 μM Arl·GppNHp) | koff from PDE6δ in presence of Arl2·GppNHp (PDE6δ [2]; 10 μM Arl2·GppNHp) [s⁻¹] | koff from PDE6δ in presence of Arl3·GppNHp (PDE6δ [2]; 10 μM Arl3·GppNHp) [s⁻¹] | intrinsic dissociation rate koff from PDE6δ (PDE6δ [2]; absence of Arl2/3) [s⁻¹] | release of INPP5E peptide from PDE6δ by Arl3 form ([1]; 0.2 μM TAMRA-labelled INPP5E peptide, 0.2 μM PDE6δ, 5 μM Arl3fl or Arl3ΔN) | association rate constant kon with PDE6δ (PDE6δ [3]) [M⁻¹ s⁻¹] | association rate constant kon with PDE6δ (PDE6δ [3]; listed as Arl3^ΔN) [M⁻¹ s⁻¹] | dissociation rate constant koff from PDE6δ (PDE6δ [3]) [s⁻¹] | dissociation rate constant koff from PDE6δ (PDE6δ [3]; listed as Arl3^ΔN) [s⁻¹] | increase of affinity to PDE6δ by the N-terminal helix (PDE6δ [3]; Arl3 full-length versus ΔN) [fold] | Kd (PDE6δ [3]; listed as Arl3^ΔN) [nM] | Kd (PDE6δ [3]) [nM]
COC(=O)[C@H](CSC/C=C(\C)CC/C=C(\C)CCC=C(C)C)NC(=O)[C@H](CO)NC(=O)[C@H](CO)NC(=O)[C@H](CCCCN)NC(=O)CNC(=O)[C@H](CCC(N)=O)NC(=O)[C@H](CO)NC(=S)Nc1ccc2c(c1)C(=O)OC21c2ccc(O)cc2Oc2cc(O)ccc21 [Rheb peptide] ({FITC}-SQGKSSC(Farnesyl)-OMe; N-terminus and C-terminus assumed) | can be released by both Arl2·GppNHp and Arl3·GppNHp | 15.3 ± 0.3 | 27.2 ± 0.7 | 0.95 ± 0.004 | – | – | – | – | – | – | – | –
Arl3^fl: full-length Arl3, GppNHp or mantGppNHp loaded | – | – | – | – | unable to release the INPP5E peptide | 5.97e+06 | 4.25e+06 | 0.035 | 0.92 | 37 | 217 ± 4.3 | 5.84
